{"source": "patent US10180422B1", "about": "“Methods of treating a neuroendocrine tumor” (Scripps Health, priority 2017, dated 2019)", "test_system": "neuroendocrine tumor (NET) with ETV6:NTRK3 translocation", "test": "Treatment of a NET patient with the Trk inhibitor entrectinib (case report, Example 1)", "format": "in vivo, human", "settings": "for weight gain: patient", "description": "A previously healthy patient presented with progressive low back pain and 11 kg weight loss over the previous year. They were a never-smoker, occasional alcohol drinker, and an avid runner. The patient had no relevant family history of cancer.\nA right upper quadrant ultrasound noted echogenic masses present in the liver. A computed tomography (CT) scan identified low-density liver lesions, adrenal masses, bulky retroperitoneal and pelvic lymphadenopathy, and diffuse bony disease. […] Multiple hypermetabolic liver lesions are seen, and innumerable lesions are seen throughout the skeleton (FIG. 1A). CT-guided biopsy of the left iliac bone reported well-differentiated neuroendocrine carcinoma (NETs), possibly from a lower GI source. […] Repeat CT-guided core biopsy of a right iliac soft tissue mass confirmed the absence of a high-grade component, consistent with the initial biopsy.\nThe patient received 3000 cGy of palliative radiotherapy to L1-S3 in 10 fractions for pain management followed by temozolomide and capecitabine chemotherapy.\nFollowing chemotherapy, a tumor biopsy was obtained from the patient's lymph node, FFPE slides were prepared, and the NTRK status of the patient's NET was first analyzed by immunohistochemistry (IHC). The patient's tumor was positive for altered NTRK protein expression and the NET was subsequently analyzed by RNAseq NGS. An ETV6:NTRK3 translocation was identified in the patient's tumor and therapy was initiated with the investigational agent entrectinib, a potent oral tyrosine kinase inhibitor of TrkA, TrkB, and TrkC.", "key": {"[1]": {"settings": "after cycle #1 (one month) of entrectinib treatment"}}, "note": "Entries after “also recorded” stand apart in the source; their conditions may differ."}
{"molecule": "CN1CCN(c2ccc(C(=O)Nc3n[nH]c4ccc(Cc5cc(F)cc(F)c5)cc34)c(NC3CCOCC3)c2)CC1", "note": "[entrectinib, N-[5-(3,5-difluoro-benzyl)-1h-indazol-3-yl]-4-(4-methyl-piperazin-1-yl)-2-(tetrahydro-pyran-4-ylamino)-benzamide]", "values": [{"measurement": "axial contrast-enhanced abdominal CT, left pelvic sidewall masses", "setting": "after 1 cycle of entrectinib, compared with the scan after chemotherapy (FIG. 3B vs 3A)", "value": "appear swollen and measure larger, but are lower in density; also recorded: appeared swollen and measured larger, but was lower in density than the previous scan"}, {"measurement": "FDG-PET imaging, skeleton / bony disease", "setting": "after 2 cycles of entrectinib (FIG. 1B, right proximal femur)", "value": "improvement in the previously confluent bony disease; also recorded: clear improvement was observed in the skeleton"}, {"measurement": "octreoscan, overall disease (tumor) burden", "setting": "after 6 months (6 cycles) of entrectinib, compared with presentation (FIG. 2B vs 2A)", "value": "significant overall reduction in tumor burden; also recorded: significant reduction in overall disease burden"}, {"measurement": "pain and energy levels (patient-reported)", "setting": "[1]", "value": "significant improvement in pain and energy levels"}, {"measurement": "clinical status (energy, activity, pain control requirements)", "setting": "at 8 months on entrectinib", "value": "normalized energy and activity, and markedly reduced pain control requirements"}, {"measurement": "response of liver metastases", "setting": "during entrectinib treatment", "value": "some liver metastases have responded, while others have not"}, {"measurement": "adverse events", "setting": "patient on entrectinib up to 8 months", "value": "no notable adverse events"}, {"measurement": "weight gain", "setting": "[1]", "value": 6, "unit": "kg"}, {"measurement": "weight gain", "setting": "at 8 months on entrectinib, stabilized", "value": 12, "unit": "kg"}, {"measurement": "follow-up CT scans, pelvic nodal masses", "setting": "subsequent months of entrectinib treatment", "value": "continued shrinkage of the pelvic nodal masses"}]}
